Results taken from US9493435B2, “IRE-1α inhibitors” (MannKing Corporation, priority 2009, dated 2016).

Columns and labels:
XBP-1 splicing = XBP-1 splicing in vivo in a model of ER stress (tunicamycin-treated SCID mice); design: species or system mouse; conditions: tunicamycin 1 mg/kg IP, 100, 50 or 25 mg/kg orally, 2 hour exposure, RT-PCR
Experimental: SCID mice were treated with tunicamycin 1 mg/kg IP. Compound no. 12-4 was administered orally two hours later at one of three doses: 100 mg/kg, 50 mg/kg, or 25 mg/kg (2 hour exposure) in 10% hydroxypropyl-beta-cyclodextrin (HPBCD). The total exposure to tunicamycin was 4 hours, and the total exposure to compound 12-4 was 2 hours.
Livers and kidneys were harvested and total RNA was prepared using Trizol. RT-PCR was performed using murine specific XBP1 primers flanking the 26-nt intron and products were separated on 4% agarose gel. The results are shown in FIG. 1B (liver) and FIG. 1C, in which each lane represents an individual mouse (n=4).

[1] = system: human myeloma RPMI8226 tumor xenografts; experiment: RPMI8226 xenograft efficacy model; assay type: in vivo, mouse; conditions: SCID mice bearing RPMI8226 xenografts, 0.75 mg/kg IV twice weekly
Experimental: SCID mice are implanted with tumor cells (human RPMI8226 myeloma cells) via IP, IV or SC routes based on the results from the xenograft model development studies (above). Mice are treated with compound or mock treated (vehicle) for a period of up to 4-5 weeks. Compound administration can be via IV, IP, PO or SC routes. In some cases, tunicamycin is administered via IP injection in order to stimulate stress in the animal. This stress mimics the stress an animal may undergo during times of tumor growth. The tunicaymycin injection mimics tumor growth during times of stress and permits evaluation of biomarkers which indicate the effectiveness of a compound (such as XBP-1 splicing) by RT-PCR, immunohistochemistry, or Western blots.
Mice are monitored for tumor growth, regression and general health. Tumors are collected and characterized by immunohistochemistry and/or FACS analysis. Tumor growth is measured by calipers, ultrasound, or by abdominal lavage. Biomarkers in the blood or tumor can evaluated (primarily XBP-1 splicing).
Tumor cells are cultured and injected IP, IV (tail vein) or SC (flank) in the mouse using a 21G needle in a volume of approx 100 μL. Mice are treated with compounds or vehicle alone as a control by IV, IP, SC or PO routes 5 days per week for up to 4-5 weeks. Blood is collected via retroorbital bleed (100 μA) at 2 time points (different eyes). […]

Compound	inhibition of XBP-1 splicing in kidney (XBP-1 splicing; kidney)	inhibition of XBP-1 splicing in liver (XBP-1 splicing; liver)	tumor growth [1]
Cc1nc(-c2ccc3c(C=O)c(O)ccc3c2)sc1C(=O)N1CCN(C)CC1 [Compound 12-4]	dose-dependent inhibition	dose-dependent inhibition	
CC(C)C[C@H](NC(=O)[C@H](Cc1ccccc1)NC(=O)c1cnccn1)B(O)O [bortezomib]			suppression of tumor growth
